# According to PMC13195669, “GPR3 Ligands Discovered through Combined Virtual and Conformational Biosensor-Based Screening” (Journal of the American Chemical Society, 2026):
# Legend:
# GPR3 = molecular target: T1, GPR3 (Homo sapiens, UniProt P46089); assay: Gs heterotrimer dissociation biosensor (Gs-CASE) in HEK293A cells cotransfected with GPR3; assay type: cell-based; conditions: HEK293A transiently transfected with Gs-CASE and GPR3; read-out: EC50 of GPR3-dependent BRET increase, Gs dissociation biosensor
# T1 construct: host or cells: HEK293A, transient
# T1 sequence (P46089 whole entry): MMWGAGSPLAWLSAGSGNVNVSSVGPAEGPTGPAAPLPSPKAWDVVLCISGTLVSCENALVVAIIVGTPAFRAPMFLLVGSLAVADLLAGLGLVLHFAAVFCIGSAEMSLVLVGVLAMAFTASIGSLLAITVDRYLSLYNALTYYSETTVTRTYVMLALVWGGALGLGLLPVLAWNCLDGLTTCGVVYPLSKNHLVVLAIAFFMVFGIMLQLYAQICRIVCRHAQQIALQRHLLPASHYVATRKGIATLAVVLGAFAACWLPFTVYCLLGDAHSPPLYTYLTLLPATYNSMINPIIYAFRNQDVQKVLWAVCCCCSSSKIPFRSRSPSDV
# Text: To further delineate the pharmacological properties of 33, we evaluated its activity in signaling assays downstream of GPR3. […] We also investigated whether 33 blocks the activity of previously validated GPR3 ligands–the agonist DPI and the inverse agonist AF64394 (Chart )–in a cAMP assay. […] The differential effect between OEA and oleamide may reflect differences in their conformational and/or positional flexibility within the GPR3 binding pocket. This difference is supported by MD simulations of oleamide in GPR3 and by a comparison of oleic acid binding poses in the highly similar pockets of GPR3 and GPR6. , […]
# (§1) Cells expressing the conformational GPCR biosensors were grown for 24 h (stable cells) or 48 h (transiently transfected cells) in white 96-well plates and washed with 100 µl of HBSS. […] Three baseline BRET reads were recorded and averaged prior to the addition of serial dilutions of ligands or veh icle control and subsequent BRET reads. […] BRE T donor emission was quantified with a 470/80 nm monochromator. […] Experiments were carried out using a CLARIOstar plate reader.
# (§2) FRET- and BRET-based measurements of cAMP levels and Gs dissociation/reassociation Transfected cells grown in black 96-well plates were washed twice with 100 µl of HBSS 48 h after transfection and incubated with HBSS. […] FRET donor emission was quantified with a 480/10 nm filter. […]
# GPR3 T3.37A mutant = molecular target: T2, GPR3 T3.37A mutant (Homo sapiens, UniProt P46089, T121A); assay: GPR3 conformational biosensor with T3.37A point mutation; assay type: cell-based; conditions: wildtype vs mutant biosensor; transiently transfected HEK293A
# T2 construct: ligated to the full-length C-terminus; expressed in transfected cells; host or cells: HEK293A, transient
# T2 sequence (P46089 2-330 T121A limits assumed): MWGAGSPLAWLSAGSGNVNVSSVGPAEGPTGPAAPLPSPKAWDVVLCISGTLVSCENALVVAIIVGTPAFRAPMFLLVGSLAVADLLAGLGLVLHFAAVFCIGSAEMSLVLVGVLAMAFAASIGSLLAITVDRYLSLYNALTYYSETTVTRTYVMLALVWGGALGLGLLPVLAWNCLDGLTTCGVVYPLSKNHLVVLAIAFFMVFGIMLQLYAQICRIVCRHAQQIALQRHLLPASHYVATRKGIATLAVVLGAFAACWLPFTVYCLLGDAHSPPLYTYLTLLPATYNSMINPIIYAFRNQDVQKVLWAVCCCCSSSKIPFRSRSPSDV
# Text: To develop a hypothesis for the cause of the significant loss in efficacy from VH1 to 33, we computationally predicted the binding poses of both molecules in GPR3 (Figure a). […] In contrast, the cyclopropyl ring of 33 is still buried in the receptor’s transmembrane core. […] We also challenged this binding model of 33 with another GPR3 biosensor variant which harbors the T^3.37A point mutation in transmembrane helix 3. According to an alternative predicted pose of 33 obtained with Boltz-2 (c.f., SI – Materials and Methods section), this mutation should hamper 33 binding to GPR3.
# BRET-based GPCR conformational sensor experiments
# as §1, §2
compound,measurement,setting,value
N=c1n(Cc2ccccc2)c2ccccc2n1CC1CC1 [compound 33],EC50,GPR3,249 nM
same,effect of T3.37A mutation on activity,GPR3 T3.37A mutant,no such effect on 33 activity
